Laboratory results as given in patent publication US12539324B2, “Antimicrobial peptide stimulating sanitizing composition” (GOJO Industries, Inc., priority 2016, dated 2026).

Columns and labels:
Type in all cases: cell-based, human
HBD-3 = HBD-3 ELISA, dose response in NHEK culture medium; details: vs control culture medium
Protocol: (§1) To determine the optimal dose of active ingredient, test dose response studies were run using both Decorinyl® and Pamitoyl Pentapeptided-3. These test dose response studies were commissioned to determine the concentration of HBD-3 at various levels of the active ingredients. Neonatal Human Epidermal Keratinocytes (NHEK; Life Technology, Grand Island, NY, USA) were cultured with keratinocyte growth medium (KGM, Medium 154: M-154-500 Life Technology with supplements 5-001, Life Technologies). NHEK were seeded into 96-well plates at a density of 10000 cells in 200 μl medium per well. After 48 hours, the cells were incubated with varying concentrations of each ingredient solution in a culture medium (KGM) overnight (16 hours) at 37° C., 5% CO2 and 95% humidity at four replicates for each concentration. Each of these active ingredients was tested at the following weight percents based on the weight of the total culture: 0.02 wt. %, 0.05 wt. %, 0.1 wt. %, 0.2 wt. %, 0.5 wt. %, 1.0 wt. %, 2.0 wt. %. Each of these compositions was compared to a control culture medium.
HBD-3 was detected using HBD-3 ELISA developing kits (commercially available from Peprotech). […] The results were measured using a colorimeter, absorbance was measured at 450 nanometers (nm) within 30 minutes. […] The concentration of each sample was calculated using ELISA standard curve.

HBD-2 = HBD-2 ELISA, dose response in NHEK culture medium; details: 2.0 wt. %, vs control culture medium
Protocol: as §1, with “of HBD-2” for “of HBD-3”, “supplements S-001,” for “supplements 5-001,”, “ingredients were” for “ingredients was”
HBD-2 was detected using HBD-2 ELISA developing kits (commercially available from Peprotech). […] The results were measured using a colorimeter, absorbance was measured at 450 nanometers (nm) within 30 minutes. […] The concentration of each sample was calculated using ELISA standard curve.

HBD-1 = HBD-1 ELISA, dose response in NHEK culture medium; details: vs control culture medium
Protocol: as §1, with “HBD-1” for “HBD-3”, “S-001,” for “5-001,”
HBD-1 was detected using HBD-1 ELISA (enzyme-linked immunosorbent assay) developing kits (commercially available from Peprotech). […] The results were measured using a colorimeter, absorbance was measured at 450 nanometers (nm) within 30 minutes. […] The concentration of each sample was calculated using ELISA standard curve.

## palmitoyl pentapeptide-3 [Pamitoyl Pentapeptided-3]
HBD-3; 1.0 wt. %
  increase in HBD-3 concentration: 1005%
HBD-3; 2.0 wt. %
  increase in HBD-3 concentration: 1890%
HBD-2
  increase in HBD-2 concentration: 2800%
HBD-1; 1.0 wt. %
  increase in HBD-1 concentration: 311%
HBD-1; 2.0 wt. %
  increase in HBD-1 concentration: 1561%
